# How the values were obtained:
# HT1080 cells [1] = experiment: Lipid peroxidation assay (BODIPY 581/591 C11); type: cell-based
# Method: BODIPY® 581i591 C11 reagent (Life Technologies Inc.) was used to quantitatively determine the degree of lipid peroxidation. It is a ratiometric fluorescence technique that relies on oxidation of lipids to shift fluorescence emission peak from 590 nm to 510 nm. […] All the compounds were incubated for 6 h at 37° C. Finally, the BODIPY-based dye (10 μM) was added and incubated for 30 min at 37° C. After washing the cells with PBS three times, the plate was analysed using a Synergy HT multimode plate reader (BioTek Instruments Inc., Winooski, USA) with excitation/emission of 581/591 nm for the reduced dye and at 488/510 nm for the oxidized dye. The ratio of the fluorescence intensities at 590/510 nm was plotted to derive the ratio of fluorescence change.
# HT1080 tumor = details: mouse, in vivo
# 4T1 and HT1080 tumor = details: mouse, in vivo
# Source text: The studies were commenced when tumor volume reached 500 mm^3. […] The animals were euthanized subsequently and major organs dissected and imaged in the same channel. Image J was used to quantitate fluorescence intensity by drawing regions of interest encompassing entire organs.
# cells = details: literature; cited from earlier work
# HT1080 tumors = type: in vivo, mice; details: i.v. with FDG, monitored 15 days
# Source text: Tumor volume was registered every alternate day for 15 days.
# [2] = system: mitochondrial membrane potential; experiment: Mitochondrial membrane potential assay (Mitotracker Green); type: cell-based; details: coincubated with FDG
# Method: For measuring mitochondrial membrane potential, Mitotracker Green (Life Technologies Inc.) was used according to manufacturer's instructions. Staurosporine (2 μM; Sigma Aldrich Co.) was used as positive control. Fluorescence readout was performed using a plate reader using excitation/emission wavelengths of 490/516 nm.
# HT1080 cells [3] = system: HT1080 cells
# Method: FIG. 7A and FIG. 7B depict the effect of photosensitive particles and radionuclides on cell viability. […] The control group was considered to be 100% viable. […] HT1080 cells were used and the values are means±s.e.m. (experiments for each group were run in triplicates).
# The MTS (3-(4,5-di methylthiazol-2-yl)-5-(3-carboxymethoxyphenyl)-2-(4-sulfophenyl)-2H-tetrazolium) assay, a colorimetric assay for assessing cell viability was performed using the CellTiter 96® AQueous Non-Radioactive Cell Proliferation Assay kit (Promega Co.) according to the manufacturer's instructions.
# HT1080 cell line = details: expected result of planned assay
compound,measurement,setting,value
"Cc1c(C)c2c(c(C)c1O)CCC(C)(C(=O)O)O2 (centres unmarked) [Trolox, reference compound]",effect of peroxyl radical scavenger on lipid peroxidation,HT1080 cells [1]; added to Tc and FDG,adequately inhibited this process
"Tf: transferrin, tumor targeting protein; Alexa 680 labeled for biodistribution",tumor to muscle ratio,HT1080 tumor,5.3
same,tumor:muscle ratio,4T1 and HT1080 tumor,5.5
Titanocene dichloride [Tc],concentration known to induce apoptosis in cells,cells,≥ 12500 ng/mL
same,"tumor volume, fold smaller compared to controls",HT1080 tumors,four-fold
same,mitochondrial membrane potential,[2],significant decrease in mitochondrial membrane potential
same,concentration that did not induce apoptosis,HT1080 cells [3],< 10000 ng/mL
same,peroxidation of cellular lipids,HT1080 cells [1]; with FDG,induced significant peroxidation and degradation of cellular lipids
same,"LD50 Tc concentration, fold lower with CR than without FDG",HT1080 cell line,at least 4 fold
titanium dioxide [TiO2],concentration at which TiO2 particles did not induce apoptosis,HT1080 cells [3],< 0.004 ng/mL
same,concentration that did not induce apoptosis,HT1080 cells [3],< 4000 ng/mL
